Experimental data from US20190298621A1, “METHODS OF TREATMENT OF THE DENTAL PULP AND FILLING ROOT CANALS USING ANTI INFLAMMATORY RINSE SOLUTION AND FILLING COMPOSITION” (DENTSPLY SIRONA Inc., priority 2018, published 2019).
One block for each molecule: values may come before it.

Assay: Anti-inflammatory agent solubility in solvents
Type: physicochemical
Details: for Solvent (anti-inflammatory agent solubility in solvents): solvent in which the agent is miscible, ambient conditions
Description: An anti-inflammatory rinse solution was prepared by mixing anti-inflammatory agent in a solvent in which they are miscible in a vial under ambient conditions as shown in Table 2.

Structure (SMILES): O=C(/C=C/c1ccccc1)c1ccccc1 [Chalcone]
Solvent (anti-inflammatory agent solubility in solvents): Ethanol

Structure (SMILES): C=CCc1ccc(O)c(OC)c1 [Eugenol]
Solvent (anti-inflammatory agent solubility in solvents): Ethanol
solubility in water: partially soluble in water

Second part, the molecule after the results:

Solvent (anti-inflammatory agent solubility in solvents): Ethanol
solubility in water: insoluble in water
Structure (SMILES): Cc1c(C)c2c(c(C)c1O)CC[C@@](C)(CCC[C@H](C)CCC[C@H](C)CCCC(C)C)O2 [Vitamin E, α-tocopherol]

solubility in water: partially soluble in water
Structure (SMILES): CC(C)Cc1ccc(C(C)C(=O)O)cc1 (stereo not shown) [Ibuprofen]

Solvent (anti-inflammatory agent solubility in solvents): Water
Structure (SMILES): OC[C@@H](O)[C@H](O)[C@@H](O)CO [Xylitol]
